Test results: patent publication US20140249135A1, “PIM KINASE INHIBITORS AND METHODS OF THEIR USE” (NOVARTIS AG, priority 2007, published 2014)
Read-outs that look alike come from different tables or passages of the source.

Tests used:
Type in all cases: biochemical
Pim2 kinase = Pim2 kinase (Homo sapiens, UniProt Q9P1W9); assay: Pim2 ATP depletion assay;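 further: Luciferase-based luminescent readout of ATP remaining after PIM2 phosphorylates a BAD peptide, final 5 nM enzyme, 4 µM ATP, 10 µM peptide, 2.5% DMSO, run to roughly half ATP consumption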
Pim1 kinase = Pim1 kinase (Homo sapiens, UniProt P11309); assay: Pim1 ATP depletion assay; conditions: Pim1 ATP depletion assay;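 further: Luciferase-luciferin luminescence readout of residual ATP after PIM1 transfers phosphate to a peptide substrate, 40 µM ATP added, reaction run to roughly half ATP consumption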
Pim3 kinase = Pim3 kinase (Homo sapiens, UniProt Q86V86); assay: Pim3 ATP depletion assay

Measured: IC50

Chain of Pim1 kinase (P11309 whole entry): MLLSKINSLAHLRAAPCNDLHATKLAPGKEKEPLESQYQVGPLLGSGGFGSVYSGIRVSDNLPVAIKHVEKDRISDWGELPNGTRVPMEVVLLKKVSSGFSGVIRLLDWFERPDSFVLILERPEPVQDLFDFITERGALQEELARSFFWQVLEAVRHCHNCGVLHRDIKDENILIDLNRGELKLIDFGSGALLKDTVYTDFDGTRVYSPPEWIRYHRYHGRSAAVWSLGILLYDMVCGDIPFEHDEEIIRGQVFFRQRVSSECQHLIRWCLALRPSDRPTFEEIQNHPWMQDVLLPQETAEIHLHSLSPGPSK
Chain of Pim2 kinase (Q9P1W9 whole entry): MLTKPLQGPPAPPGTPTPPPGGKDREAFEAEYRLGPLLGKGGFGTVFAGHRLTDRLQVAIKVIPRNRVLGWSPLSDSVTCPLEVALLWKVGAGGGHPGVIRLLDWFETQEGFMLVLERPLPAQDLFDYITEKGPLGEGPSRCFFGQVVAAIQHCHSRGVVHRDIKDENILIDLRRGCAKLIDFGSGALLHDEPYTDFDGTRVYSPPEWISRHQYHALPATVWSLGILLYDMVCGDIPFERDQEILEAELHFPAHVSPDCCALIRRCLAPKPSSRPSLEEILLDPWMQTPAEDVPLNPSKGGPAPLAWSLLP

COC(=O)c1nc(-c2ccc(N)c(C(=O)Nc3cnccc3N3CCC[C@H](N)C3)n2)c(F)cc1N [Example 504, 5,5′-Diamino-6′-(3-amino-3,4,5,6-tetrahydro-2H-[1,4′]bi-pyridinyl-3′-ylcarbamoyl)-3-fluoro-[2,2′]bipyridinyl-6-carboxylic acid methyl ester]
< 1 µM: Pim2 kinase; read-out: IC50 (μM) PIM2 | Pim1 kinase; read-out: IC50 (μM) PIM1 | Pim3 kinase; read-out: IC50 (μM) PIM3

CCCCOc1ccc(F)c(-c2nc(C(=O)Nc3cnccc3N3CCC[C@H](N)C3)c(N)cc2F)c1F [Example 506, 3-Amino-6-(3-butoxy-2,6-difluoro-phenyl)-5-fluoro-pyridine-2-carboxylic acid (3-amino-3,4,5,6-tetrahydro-2H-[1,4′]bipyridinyl-3′-yl)-amide]
< 1 µM: Pim2 kinase; read-out: IC50 (μM) PIM2 | Pim1 kinase; read-out: IC50 (μM) PIM1 | Pim3 kinase; read-out: IC50 (μM) PIM3

COc1cncc(-c2nc(C(=O)Nc3cnccc3N3CCC[C@H](N)C3)c(N)cc2F)n1 [Example 507, 3-Amino-5-fluoro-6-(6-methoxy-pyrazin-2-yl)-pyridine-2-carboxylic acid (3-amino-3,4,5,6-tetrahydro-2H-[1,4′]bipyridinyl-3′-yl)-amide]
< 1 µM: Pim2 kinase; read-out: IC50 (μM) PIM2 | Pim1 kinase; read-out: IC50 (μM) PIM1 | Pim3 kinase; read-out: IC50 (μM) PIM3

CC(C)NC(=O)c1ccc(F)c(-c2nc(C(=O)Nc3cnccc3N3CCC[C@H](N)C3)c(N)cc2F)c1 [Example 508, 3-Amino-5-fluoro-6-(2-fluoro-5-isopropylcarbamoyl-phenyl)-pyridine-2-carboxylic acid (3-amino-3,4,5,6-tetrahydro-2H-[1,4′]bipyridinyl-3′-yl)-amide]
< 1 µM: Pim2 kinase; read-out: IC50 (μM) PIM2 | Pim1 kinase; read-out: IC50 (μM) PIM1 | Pim3 kinase; read-out: IC50 (μM) PIM3

Cc1cccc(C)c1-c1nc(C(=O)Nc2cnccc2N2CCC[C@H](N)C2)c(N)cc1F [Example 509, 3-Amino-6-(2,6-dimethyl-phenyl)-5-fluoro-pyridine-2-carboxylic acid (3-amino-3,4,5,6-tetrahydro-2H-[1,4′]bipyridinyl-3′-yl)-amide]
< 1 µM: Pim2 kinase; read-out: IC50 (μM) PIM2 | Pim1 kinase; read-out: IC50 (μM) PIM1 | Pim3 kinase; read-out: IC50 (μM) PIM3

COc1ccc(F)c(-c2nc(C(=O)Nc3cnccc3N3CCC[C@H](N)C3)c(N)cc2F)c1F [Example 510, 3-Amino-6-(2,6-difluoro-3-methoxy-phenyl)-5-fluoro-pyridine-2-carboxylic acid (3-amino-3,4,5,6-tetrahydro-2H-[1,4′]bipyridinyl-3′-yl)-amide]
< 1 µM: Pim2 kinase; read-out: IC50 (μM) PIM2 | Pim1 kinase; read-out: IC50 (μM) PIM1 | Pim3 kinase; read-out: IC50 (μM) PIM3

COc1ncccc1-c1nc(C(=O)Nc2cnccc2N2CCC[C@H](N)C2)c(N)cc1F [Example 511, 5-Amino-3-fluoro-2′-methoxy-[2,3′]bipyridinyl-6-carboxylic acid (3-amino-3,4,5,6-tetrahydro-2H-[1,4′]bipyridinyl-3′-yl)-amide]
< 1 µM: Pim2 kinase; read-out: IC50 (μM) PIM2 | Pim1 kinase; read-out: IC50 (μM) PIM1 | Pim3 kinase; read-out: IC50 (μM) PIM3

COc1cccc(-c2nc(C(=O)Nc3cnccc3N3CCC[C@H](N)C3)c(N)cc2F)n1 [Example 512, 5-Amino-3-fluoro-6′-methoxy-[2,2′]bipyridinyl-6-carboxylic acid (3-amino-3,4,5,6-tetrahydro-2H-[1,4′]bipyridinyl-3′-yl)-amide]
< 1 µM: Pim2 kinase; read-out: IC50 (μM) PIM2 | Pim1 kinase; read-out: IC50 (μM) PIM1 | Pim3 kinase; read-out: IC50 (μM) PIM3

Nc1cc(F)c(-c2ccncc2)nc1C(=O)Nc1cnccc1N1CCC[C@H](N)C1 [Example 513, 5-Amino-3-fluoro-[2,4′]bi-pyridinyl-6-carboxylic acid (3-amino-3,4,5,6-tetrahydro-2H-[1,4′]bipyridinyl-3′-yl)-amide]
< 1 µM: Pim2 kinase; read-out: IC50 (μM) PIM2 | Pim1 kinase; read-out: IC50 (μM) PIM1 | Pim3 kinase; read-out: IC50 (μM) PIM3

Nc1ccc(-c2nc(C(=O)Nc3cnccc3N3CCC[C@H](N)C3)c(N)cc2F)cn1 [Example 514, 5,6′-Diamino-3-fluoro-[2,3′]bi-pyridinyl-6-carboxylic acid (3-amino-3,4,5,6-tetrahydro-2H-[1,4′]bipyridinyl-3′-yl)-amide]
< 1 µM: Pim2 kinase; read-out: IC50 (μM) PIM2 | Pim1 kinase; read-out: IC50 (μM) PIM1 | Pim3 kinase; read-out: IC50 (μM) PIM3

CN(C)C(=O)c1ccc(F)c(-c2nc(C(=O)Nc3cnccc3N3CCC[C@H](N)C3)c(N)cc2F)c1 [Example 515, 3-Amino-6-(5-dimethylcarbamoyl-2-fluoro-phenyl)-5-fluoro-pyridine-2-carboxylic acid (3-amino-3,4,5,6-tetrahydro-2H-[1,4′]bipyridinyl-3′-yl)-amide]
< 1 µM: Pim2 kinase; read-out: IC50 (μM) PIM2 | Pim1 kinase; read-out: IC50 (μM) PIM1 | Pim3 kinase; read-out: IC50 (μM) PIM3

Nc1cc(-c2ccncc2NC(=O)c2cccc(-c3ccc(N4CCNCC4)cc3)n2)nc(C(F)(F)F)n1 [Example 525, 6-(4-Piperazin-1-yl-phenyl)-pyridine-2-carboxylic acid [4-(6-amino-2-trifluoromethyl-pyrimidin-4-yl)-pyridin-3-yl]-amide]
< 1 µM: Pim2 kinase; read-out: IC50 (μM) PIM2 | Pim1 kinase; read-out: IC50 (μM) PIM1 | Pim3 kinase; read-out: IC50 (μM) PIM3

Nc1cc(-c2ccncc2NC(=O)c2nc(C3=CCNCC3)ccc2N)nc(C(F)(F)F)n1 [Example 526, 5-Amino-1′,2′,3′,6′-tetrahydro-[2,4′]bipyridinyl-6-carboxylic acid [4-(6-amino-2-trifluoromethyl-pyrimidin-4-yl)-byridin-3-yl]-amide]
< 1 µM: Pim2 kinase; read-out: IC50 (μM) PIM2 | Pim1 kinase; read-out: IC50 (μM) PIM1 | Pim3 kinase; read-out: IC50 (μM) PIM3

Nc1cc(-c2ccncc2NC(=O)c2cccc(-c3ccc(F)cc3F)n2)nc(C(F)(F)F)n1 [Example 527, 6-(2,4-Difluoro-phenyl)-pyridine-2-carboxylic acid [4-(6-amino-2-trifluoromethyl-pyrimidin-4-yl)-pyridin-3-yl]-amide]
< 1 µM: Pim2 kinase; read-out: IC50 (μM) PIM2 | Pim1 kinase; read-out: IC50 (μM) PIM1 | Pim3 kinase; read-out: IC50 (μM) PIM3

Nc1cc(-c2ccncc2NC(=O)c2cccc(-c3c(F)cccc3F)n2)nc(C(F)(F)F)n1 [Example 528, 6-(2,6-Difluoro-phenyl)-pyridine-2-carboxylic acid [4-(6-amino-2-trifluoromethyl-pyrimidin-4-yl)-pyridin-3-yl]-amide]
< 1 µM: Pim2 kinase; read-out: IC50 (μM) PIM2 | Pim1 kinase; read-out: IC50 (μM) PIM1 | Pim3 kinase; read-out: IC50 (μM) PIM3

Nc1cc(-c2ccncc2NC(=O)c2cccc(-c3ccccc3F)n2)nc(C(F)(F)F)n1 [Example 529, 6-(2-Fluoro-phenyl)-pyridine-2-carboxylic acid [4-(6-amino-2-trifluoromethyl-pyrimidin-4-yl)-pyridin-3-yl]-amide]
< 1 µM: Pim2 kinase; read-out: IC50 (μM) PIM2 | Pim1 kinase; read-out: IC50 (μM) PIM1 | Pim3 kinase; read-out: IC50 (μM) PIM3

Nc1cc(-c2ccncc2NC(=O)c2cccc(-c3ccccc3)n2)nc(C(F)(F)F)n1 [Example 530, 6-Phenyl-pyridine-2-carboxylic acid [4-(6-amino-2-trifluoromethyl-pyrimidin-4-yl)-pyridin-3-yl]-amide]
< 1 µM: Pim2 kinase; read-out: IC50 (μM) PIM2 | Pim1 kinase; read-out: IC50 (μM) PIM1 | Pim3 kinase; read-out: IC50 (μM) PIM3

Nc1cc(-c2ccncc2NC(=O)c2nc(-c3ccccc3)ccc2N)nc(C(F)(F)F)n1 [Example 531, 3-Amino-6-phenyl-pyridine-2-carboxylic acid [4-(6-amino-2-trifluoromethyl-pyrimidin-4-yl)-pyridin-3-yl]-amide]
< 1 µM: Pim2 kinase; read-out: IC50 (μM) PIM2 | Pim1 kinase; read-out: IC50 (μM) PIM1 | Pim3 kinase; read-out: IC50 (μM) PIM3

CCCOc1ccc(F)c(-c2ccc(N)c(C(=O)Nc3cnccc3-c3cc(N)nc(SC)n3)n2)c1F [Example 532, 3-Amino-6-(2,6-difluoro-3-propoxy-phenyl)-pyridine-2-carboxylic acid [4-(6-amino-2-methylsulfanyl-pyrimidin-4-yl)-pyridin-3-yl]-amide]
< 1 µM: Pim2 kinase; read-out: IC50 (μM) PIM2 | Pim1 kinase; read-out: IC50 (μM) PIM1 | Pim3 kinase; read-out: IC50 (μM) PIM3

CCCOc1ccc(F)c(-c2ccc(N)c(C(=O)Nc3cnccc3-c3cc(N)nc(C)n3)n2)c1F [Example 533, 3-Amino-6-(2,6-difluoro-3-propoxy-phenyl)-pyridine-2-carboxylic acid [4-(6-amino-2-methyl-pyrimidin-4-yl)-pyridin-3-yl]-amide]
< 1 µM: Pim2 kinase; read-out: IC50 (μM) PIM2 | Pim1 kinase; read-out: IC50 (μM) PIM1 | Pim3 kinase; read-out: IC50 (μM) PIM3

CSc1nc(N)cc(-c2ccncc2NC(=O)c2nc(-c3c(F)ccc(OC(C)C)c3F)ccc2N)n1 [Example 536, 3-Amino-6-(2,6-difluoro-3-isopropoxy-phenyl)-pyridine-2-carboxylic acid [4-(6-amino-2-methylsulfanyl-pyrimidin-4-yl)-pyridin-3-yl]-amide]
< 1 µM: Pim2 kinase; read-out: PIM2 IC50 | Pim1 kinase; read-out: PIM1 IC50 | Pim3 kinase; read-out: PIM3 IC50

Cc1nc(N)cc(-c2ccncc2NC(=O)c2nc(-c3c(F)ccc(OC(C)C)c3F)ccc2N)n1 [Example 537, 3-Amino-6-(2,6-difluoro-3-isopropoxy-phenyl)-pyridine-2-carboxylic acid [4-(6-amino-2-methyl-pyrimidin-4-yl)-pyridin-3-yl]-amide]
< 1 µM: Pim2 kinase; read-out: PIM2 IC50 | Pim1 kinase; read-out: PIM1 IC50 | Pim3 kinase; read-out: PIM3 IC50

Cc1cc(-c2ccncc2NC(=O)c2nc(-c3cc(C(=O)NC(C)C)ccc3F)ccc2N)cc(N)n1 [Example 539, 3-Amino-6-(2-fluoro-5-isopropylcarbamoyl-phenyl)-pyridine-2-carboxylic acid (2′-amino-6′-methyl-[4,4′]bi-pyridinyl-3-yl)-amide]
< 1 µM: Pim2 kinase; read-out: PIM2 IC50 | Pim1 kinase; read-out: PIM1 IC50 | Pim3 kinase; read-out: PIM3 IC50
